Patent US20050120397A1, “Compounds and methods for regulation of spermatid differentiation” (priority 2003, published 2005)
Entries after “also recorded” stand apart in the source; their conditions may differ. Residues, ends and D or L forms follow the SMILES beside them. *: point of attachment. Cbz = O=C(OCc1ccccc1)*; CH2F = FC*

How the values were obtained:
[1] = tested on: spermatid individualization in cultured testes; experiment: Testes cultures with caspase inhibitor (spermatid individualization); type: cell-based, Drosophila; conditions: isolated testes cultured 24-26 hours at 25° C. with 30 mm Z-VAD(OMe)-FMK
Experimental: At least 20 testes were examined for each experiment described. Testes of young adults were dissected in testis buffer (TB) which consisted of: 10 mM Tris-HCl, pH 6.8, 183 mM KCl, 47 mM NaCl, 1 mM EDTA, and 1 mM PMSF. Dissected testes were transferred to a […] droplet of TB placed on a siliconized coverslip (GOLD SEAL), opened using thin forceps, and sandwiched with a poly-L-lysine-coated slide. The sandwich was frozen in liquid nitrogen, the coverslip was removed with a razor blade, and the slide was placed in ice-cold absolute ethanol. The slides were drained and a hydrophobic ring surrounding the opaque tissue was drawn using a PAP PEN (Zymed Laboratories Inc.). The tissue was fixed in 4% formaldehyde in PBS for 20 minutes, rinsed twice with PBS for 5 minutes, incubated in PBT (PBS+0.1% Triton X-100) for 30 minutes, and rinsed twice again. The fixed testes were then blocked with PBS/BSA (1% BSA in PBS) for 45 minutes, incubated with primary antibody (diluted in PBS/BSA) within the hydrophobic ring overnight at […] inside a humid chamber, and rinsed twice for 5 minutes in PBS. […] Caspase inhibition of IC caudal movement was determined in vitro, using isolated pairs of testes from young adult flies (n=10). […]

drICE = biological target: T1, drICE (Drosophila melanogaster, UniProt O01382); conditions: cited from earlier work
T1 sequence (O01382 29-217 limits assumed): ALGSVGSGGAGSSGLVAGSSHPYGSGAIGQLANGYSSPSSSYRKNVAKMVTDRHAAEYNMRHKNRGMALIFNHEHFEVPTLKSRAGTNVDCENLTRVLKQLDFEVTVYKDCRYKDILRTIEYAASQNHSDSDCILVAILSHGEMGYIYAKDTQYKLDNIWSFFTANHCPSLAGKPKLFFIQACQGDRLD
T1 sequence (O01382 231-339 limits assumed): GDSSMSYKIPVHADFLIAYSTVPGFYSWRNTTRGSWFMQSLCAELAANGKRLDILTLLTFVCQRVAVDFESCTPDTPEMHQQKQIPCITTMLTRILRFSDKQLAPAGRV

Drosophila S2 cells = conditions: cited from earlier work
[2] = tested on: spermatid individualization and male fertility; experiment: Expression of p35 in male gonads (Hsp83-gal4 x UAS-p35): fertility test and cytological analysis; type: in vivo, Drosophila
[3] = ectopic expression of p35 in male germ cells

For `COC(=O)C[C@H](NC(=O)[C@H](C)NC(=O)[C@@H](NC(=O)OCc1ccccc1)C(C)C)C(=O)CF` [Z-VAD, Z-VAD(OMe)-FMK] (Cbz-Val-Ala-Asp(OMe)-CH2F), the “IC (individualization complex) translocation” value ([1]; versus DMSO control) is listed as “no evidence of IC translocation”, the “cystic bulge (CB) morphology / collection of cytoplasm into CBs” value ([1]; versus DMSO control testis of same individual) is listed as “advanced CBs that appeared flat; also recorded: flat, irregular CBs” and the “activity of drICE in vitro” value (drICE) is listed as “blocks the activity of drICE in vitro”. The drICE-induced cell death (Drosophila S2 cells) was “blocks”.

B1: p35: baculoviral broad-spectrum caspase inhibitor p35, expressed in male gonads via the GAL4/UAS system (protein, UniProt P08160 1-299, looked up)
Early 35 kDa protein: MCVIFPVEIDVSQTIIRDCQVDKQTRELVYINKIMNTQLTKPVLMMFNISGPIRSVTRKNNNLRDRIKSKVDEQFDQLERDYSDQMDGFHDSIKYFKDEHYSVSCQNGSVLKSKFAKILKSHDYTDKKSIEAYEKYCLPKLVDERNDYYVAVCVLKPGFENGSNQVLSFEYNPIGNKVIVPFAHEINDTGLYEYDVVAYVDSVQFDGEQFEEFVQSLILPSSFKNSEKVLYYNEASKNKSMIYKALEFTTESSWGKSEKYNWKIFCNGFIYDKKSKVLYVKLHNVTSALNKNVILNTIK
For B1, the “CM1-staining (active drICE)” value [2, 3] was “failing to block CM1-staining”, the “spermatid individualization / CB and WB morphology in vivo” value [2, 3] was “the cytoplasm failed to collect to form a normal CB; also recorded: blocked individualization; also recorded: scattered IC cones and flat CBs and WBs” and the “IC translocation in vivo” value ([2]; male progeny with Hsp83-gal4 driver and UAS-p35 construct) was “IC translocation was severely impaired”. The male fertility ([2]; male progeny with Hsp83-gal4 driver and UAS-p35 construct, parental lines fertile) was “sterile”.
